Data on 1 molecule can be found in ChEMBL document CHEMBL5352398 (Eur J Med Chem, 2022).

Activity calls are given as the source filed them. The calls are words filed in the database; no cut-off is given here.

For data set [1], the target named is T1, Solute carrier family 2, facilitated glucose transporter member 9 (Mus musculus) (UniProt Q3T9X0).
T1 sequence (whole entry): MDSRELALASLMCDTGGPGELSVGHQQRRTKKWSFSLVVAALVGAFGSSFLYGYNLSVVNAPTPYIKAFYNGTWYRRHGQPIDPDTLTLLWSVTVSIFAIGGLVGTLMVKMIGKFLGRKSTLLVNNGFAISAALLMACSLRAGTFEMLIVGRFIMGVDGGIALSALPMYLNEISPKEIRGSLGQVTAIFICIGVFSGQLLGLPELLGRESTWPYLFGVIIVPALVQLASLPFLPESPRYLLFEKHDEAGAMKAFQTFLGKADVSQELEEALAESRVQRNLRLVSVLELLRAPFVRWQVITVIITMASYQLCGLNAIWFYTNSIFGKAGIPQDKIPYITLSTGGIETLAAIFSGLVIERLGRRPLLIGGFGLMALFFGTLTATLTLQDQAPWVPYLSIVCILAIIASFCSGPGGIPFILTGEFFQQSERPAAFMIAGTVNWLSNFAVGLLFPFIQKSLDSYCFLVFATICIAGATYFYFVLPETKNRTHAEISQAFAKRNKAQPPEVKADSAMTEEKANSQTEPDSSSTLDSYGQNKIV
The data set is described as follows: Inhibition of mouse GLUT9 transfected in human HEK293 cells assessed as inhibition of uric acid induced current at 10 uM by cell patch-clamp assay. Format: cell-based.

A short description of data set [2]: Hepatotoxicity in Kunming mouse assessed as increase in AST level in serum at 50 mg/kg,po for 14 days in presence of BSO. The note with it: in vivo, 336 h, time 14 day. It counts as toxicity, organism-based.
The nature of data set [3]: Renal toxicity in Kunming mouse assessed as effect on creatinine level at 50 mg/kg,po for 14 days. The note with it: in vivo, 336 h, time 14 day. It counts as organism-based.
Data set [4] deals with T2, Solute carrier family 22 member 6 (Homo sapiens, UniProt Q4U2R8).
T2 sequence (Q4U2R8 whole entry): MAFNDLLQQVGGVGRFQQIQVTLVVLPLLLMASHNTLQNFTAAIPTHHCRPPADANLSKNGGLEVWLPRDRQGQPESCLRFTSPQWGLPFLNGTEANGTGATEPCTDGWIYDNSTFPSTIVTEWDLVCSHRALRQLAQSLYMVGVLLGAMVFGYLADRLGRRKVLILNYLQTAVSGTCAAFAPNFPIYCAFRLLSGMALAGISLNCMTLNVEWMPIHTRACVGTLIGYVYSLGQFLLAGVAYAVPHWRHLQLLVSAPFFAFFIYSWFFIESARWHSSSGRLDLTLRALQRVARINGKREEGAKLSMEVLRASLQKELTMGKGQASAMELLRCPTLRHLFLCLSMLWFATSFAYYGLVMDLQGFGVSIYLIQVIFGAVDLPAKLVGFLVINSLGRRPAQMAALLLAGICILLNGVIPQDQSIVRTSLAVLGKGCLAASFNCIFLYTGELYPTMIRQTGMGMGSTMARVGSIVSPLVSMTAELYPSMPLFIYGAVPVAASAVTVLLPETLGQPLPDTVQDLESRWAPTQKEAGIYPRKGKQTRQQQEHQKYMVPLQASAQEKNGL
The data set is described as follows: Inhibition of OAT1 (unknown origin) transfected in HEK293 cells assessed as inhibition of 6-CFL uptake preincubated for 30 mins followed by 6-CFL addition and measured for 15 mins by fluorescence based microplate reader analysis. It counts as cell-based.

Data set [5] can be described thus: Oral bioavailability in Sprague-Dawley rat at 5 mg/kg and measured upto 24 hrs by LCMS analysis. It counts as ADME, organism-based. Particulars: in vivo.
Data set [6] can be described thus: Cytotoxicity against human HepG2 cells assessed as inhibition of cell growth at 400 uM incubated for 72 hrs by MTT assay relative to control. It counts as toxicity, cell-based.
Data set [7] in a line: Cytotoxicity against human HK-2 cells assessed as inhibition of cell growth at 400 uM incubated for 72 hrs by MTT assay relative to control. It counts as toxicity, cell-based.
Data set [8] in a line: Subacute toxicity in Kunming mouse assessed as animal death at 50 mg/kg,po for 14 days. It counts as organism-based. The note with it: in vivo, 336 h, time 14 day.
Data set [9] is described as follows: Subacute toxicity in Kunming mouse assessed as body weight change at 50 mg/kg,po for 14 days. It counts as organism-based. Particulars: in vivo, 336 h, time 14 day.
The nature of data set [10]: Hepatotoxicity in Kunming mouse assessed as reduction in GSH level in serum at 50 mg/kg, ip and incubated for 1 hr (reference value: 41.68 uM). It counts as toxicity, organism-based. The note with it: in vivo.
Data set [11] can be described thus: Hepatotoxicity in Kunming mouse assessed as reduction in serum GSH level at 50 mg/kg, ip and incubated for 12 hrs. It counts as toxicity, organism-based. Particulars: in vivo.
A short description of data set [12]: Toxicity in Kunming mouse assessed as steatosis in liver at 50 mg/kg, po and measured after 14 days by HE staining based microscopy. It counts as organism-based. The note with it: in vivo, 336 h, time 14 day.
The nature of data set [13]: Toxicity in Kunming mouse assessed as inflammatory infiltration in liver at 50 mg/kg, po administered and measured after 14 days by HE staining. Particulars: in vivo, 336 h, time 14 day. Format: organism-based.
Data set [14] has as its system Mus musculus. Briefly: Anti-hyperuricemic activity against potassium oxonate induced hyperuricemia in Kunming mouse model assessed as decrease in serum urate level at 4 mg/kg, po and measured after 3 hrs. It counts as functional, organism-based.

As to `CCc1oc2ccccc2c1C(=O)c1cc(Br)c(O)c(Br)c1` [BENZBROMARONE], the inhibition in [1] worked out at 26%. Moreover, the Activity result in [2] is “Non-Toxic”; in data set [3] it was “Non-Toxic”; in data set [8] it was “Non-Toxic”; in data set [9], “Non-Toxic”; in data set [10], 10.72 µM; in data set [11], “Toxic”. Besides, the Activity result in data set [12] and in data set [13] was “Non-Toxic” throughout. In data set [4], the IC50 came to 2.12 µM. Further, the bioavailability in data set [5] is 36.1%. Further, the inhibition at 72 h, 400 µM in [6] amounted to 65.7%; in data set [7], 40.1%. In [14], the result was Active.

Usually inhibition stands for the change of the read-out against control, counted positive when it falls. Broadly, the IC50 is the concentration needed to halve the response being measured. One may read the bioavailability as the share of a dose that reaches the circulation, judged against a reference dose that is usually intravenous. Low readings indicate poor availability, high ones good availability.
